Data taken from patent publication US20080318954A1, “Compounds” (Cyclacel Limited, priority 2004, published 2008).

What was measured:
[1] = tested on: glycogen synthase activity in 3T3 mouse adipocytes; experiment: Glycogen synthase (GS) assay in 3T3 mouse adipocytes; format: cell-based
Experimental: Mouse pre-adipocytes 3T3-F442A were seeded at 9×10^5 cells per 10 cm dish in DMEM 10% FCS, containing penicillin/streptomycin. When 90% confluent, the same medium was supplemented with 1 μg/mL insulin. After 3-5 days (when most cells were differentiated) insulin was removed and 4 days later the cells were ready to use.
Cells on 10 cm dishes (Human Embryonic Kidney (HEK) 293 cells, L6 rat myocytes, or 3T3 mouse adipocytes) were treated with different concentrations of GSK3-inhibitors or DMSO vehicle for 90 min. Incubation medium was removed and cells were washed with ice-cold phosphate-buffered saline (PBS) prior to lysis on ice in 50 mM HEPES, pH 7.5, 10 mM EDTA, 100 mM NaF, 5 mM DTT, protease inhibitor cocktail (Sigma). After a freeze/thaw cycle the samples are sonicated for 10 sec and centrifuged at 15,000 g for 10 min at 4° C. Lysate supernatants were snap-frozen on liquid nitrogen and stored at −80° C. Lysates were assayed for glycogen synthase activity in buffer (50 mM Tris-HCl, pH 7.8, 20 mM EDTA, 25 mM NaF, 5 mM DTT, 1% glycogen, 0.3 mM UDP-glucose and 0.06 μCi of [^14C]-UDP-glucose in the presence of 0.1 or 10 mM glucose-6-phosphate. The reaction was carried out for 30 min at 30° C. 70 μL of the reaction mixture (total volume 90 μL) were transferred to a GFC 96-well filter plate (bottom sealed with foil), containing 140 μL 96% ethanol. The GFC plate was incubated for 1 h on ice and than washed with 66% ethanol. To each well 100 μL scintillant liquid was added and the radioactivity of the samples was measured using a scintillation counter (Topcount, HP). Data are expressed as -fold increase in glycogen synthase activity ratios over those of control samples.

ZDF fa/fa rats = experiment: Oral glucose tolerance test (OGTT); format: in vivo, rat; conditions: 5 mg/kg i.v. at −270 and −30 min, 2 g/kg oral glucose
Experimental: Test compound was administrated in 10-11 weeks old ZDF rats at 5 mg/kg i.v. at −270 and −30 min. At 0 min 2 g/kg oral glucose load was given and blood samples were collected at 15 min intervals to determine the blood glucose levels.
For the OGTT male ZDF fa/fa rats (Charles River, USA), 10-11 weeks old, were used. After 15 h fasting the animals were dosed intravenously with 5 mg/kg test compound in dosing vehicle, or with dosing vehicle (10% DMSO, 90% PEG-400) only at −270 and −30 min. At 0 min the rats were given 2 g/kg glucose by oral gavage. Plasma samples were taken before and every 15 min after the OGTT for determination of blood glucose.

MAPK2/ERK2 = target: T1, MAPK2/ERK2 (Homo sapiens, UniProt P28482); experiment: Protein kinase panel selectivity screen, MAPK2/ERK2; format: biochemical; conditions: 1 μM compound; [ATP] 50 μM
T1 construct: Dundee University (panel)
T1 sequence (P28482 whole entry): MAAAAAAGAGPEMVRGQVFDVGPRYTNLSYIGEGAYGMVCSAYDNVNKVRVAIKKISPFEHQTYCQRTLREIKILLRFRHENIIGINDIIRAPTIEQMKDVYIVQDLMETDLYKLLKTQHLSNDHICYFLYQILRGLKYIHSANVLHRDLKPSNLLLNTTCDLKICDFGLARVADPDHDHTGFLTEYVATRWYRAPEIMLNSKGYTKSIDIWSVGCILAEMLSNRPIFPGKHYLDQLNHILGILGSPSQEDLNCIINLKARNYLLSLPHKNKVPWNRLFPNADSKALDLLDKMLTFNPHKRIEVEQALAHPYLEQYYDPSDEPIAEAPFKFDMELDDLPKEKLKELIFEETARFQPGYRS
Experimental: (§1) The names of the 29 kinases comprising the selectivity screen, as well as the ATP concentrations used in each kinase case, are given in Table 5. The kinase assays were carried out as described previously.
(§2) Compound XIV at a concentration of 1 μM was screened in the 29-kinase panel (Dundee University) and the results are shown bellow in Table 6.

JNK/SAPK1c = target: T2, JNK/SAPK1c (Homo sapiens, UniProt P45983); experiment: Protein kinase panel selectivity screen, JNK/SAPK1c; format: biochemical; conditions: 1 μM compound
T2 construct: Dundee University (panel)
T2 sequence (P45983 whole entry): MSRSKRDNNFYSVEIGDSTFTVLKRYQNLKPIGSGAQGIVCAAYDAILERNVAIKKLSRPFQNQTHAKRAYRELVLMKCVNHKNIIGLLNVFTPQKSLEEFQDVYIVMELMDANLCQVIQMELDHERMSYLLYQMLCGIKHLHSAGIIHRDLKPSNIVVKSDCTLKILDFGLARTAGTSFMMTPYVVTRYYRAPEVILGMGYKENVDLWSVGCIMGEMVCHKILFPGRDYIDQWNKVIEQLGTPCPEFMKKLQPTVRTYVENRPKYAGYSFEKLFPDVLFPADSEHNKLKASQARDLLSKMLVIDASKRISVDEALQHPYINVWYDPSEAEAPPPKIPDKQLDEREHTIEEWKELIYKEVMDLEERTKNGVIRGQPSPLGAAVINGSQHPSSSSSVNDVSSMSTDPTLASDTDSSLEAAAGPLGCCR
Experimental: as §1, §2

PKBdelta PH = target: T3, PKBdelta PH (Homo sapiens, UniProt P31749, S473D); experiment: Protein kinase panel selectivity screen, PKBdelta PH; format: biochemical; conditions: 1 μM compound; [ATP] 5 μM
T3 construct: Dundee University (panel)
T3 sequence (P31749 118-480 S473D limits assumed): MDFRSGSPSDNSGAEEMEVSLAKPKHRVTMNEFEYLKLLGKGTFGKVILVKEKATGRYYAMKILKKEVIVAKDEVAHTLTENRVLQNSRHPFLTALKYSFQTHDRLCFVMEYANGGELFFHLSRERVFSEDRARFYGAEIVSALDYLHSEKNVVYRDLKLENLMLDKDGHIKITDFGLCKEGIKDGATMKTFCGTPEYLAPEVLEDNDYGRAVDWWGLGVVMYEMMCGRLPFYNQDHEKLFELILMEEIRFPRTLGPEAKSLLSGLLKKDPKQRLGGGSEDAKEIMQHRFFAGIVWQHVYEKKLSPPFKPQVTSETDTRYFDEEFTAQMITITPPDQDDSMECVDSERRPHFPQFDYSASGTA
Experimental: as §1, §2

SGK = target: T4, SGK (Homo sapiens, UniProt O00141); experiment: Protein kinase panel selectivity screen, SGK; format: biochemical; conditions: 1 μM compound; [ATP] 20 μM
T4 construct: Dundee University (panel)
T4 sequence (O00141 whole entry, species assumed): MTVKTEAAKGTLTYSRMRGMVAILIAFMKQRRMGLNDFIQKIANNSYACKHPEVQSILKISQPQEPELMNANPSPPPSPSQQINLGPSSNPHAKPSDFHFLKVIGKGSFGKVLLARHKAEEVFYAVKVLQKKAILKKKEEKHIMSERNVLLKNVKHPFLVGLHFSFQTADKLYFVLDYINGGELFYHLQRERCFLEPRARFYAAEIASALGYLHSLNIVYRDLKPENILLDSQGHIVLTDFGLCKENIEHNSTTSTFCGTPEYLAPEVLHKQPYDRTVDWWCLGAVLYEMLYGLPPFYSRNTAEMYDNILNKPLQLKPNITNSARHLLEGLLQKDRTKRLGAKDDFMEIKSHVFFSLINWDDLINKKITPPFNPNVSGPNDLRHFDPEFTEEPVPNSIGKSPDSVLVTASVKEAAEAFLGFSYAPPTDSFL
Experimental: as §1, §2

CK2 = experiment: Protein kinase panel selectivity screen, CK2; format: biochemical; conditions: 1 μM compound; [ATP] 5 μM
Experimental: as §1, §2

Compound: Clc1ccc(Nc2nccc(-c3nccs3)n2)cn1 [Compound XIV, (6-Chloro-pyridin-3-yl)-(4-thiazol-2-yl-pyrimidin-2-yl)-amine]
- Activation of GS relative to that induced by 40 mM LiCl ([1]; 3T3 adipocytes, 5 μM): approximately 2 fold
- EC50 ([1]; Mus musculus, Adipocyte, 3T3 adipocytes, from dose-response curves, read-out: EC50 activation of glycogen synthase): 5 ± 2.3 µM
- fold induction at 0.2 µM ([1]; Mus musculus, NIH3T3, 3T3 cells, 0.2 μM): 1.1
- fold induction at 1 µM ([1]; Mus musculus, NIH3T3, 3T3 cells, 1 μM): 2.5
- fold induction at 5 µM ([1]; Mus musculus, NIH3T3, 3T3 cells, 5 μM): 3.7
- fold induction at 10 µM ([1]; Mus musculus, NIH3T3, 3T3 cells, 10 μM): 4.8
- Activity of glycogen synthase (fractional velocity) ([1]; mouse adipocyte cells, ratio of activity at 0.1 and 10 mM glucose-6-phosphate): increased the activity of glycogen synthase
- Decrease of absolute AUC level (blood glucose) (ZDF fa/fa rats): 29%
- Decrease of reactive AUC level (blood glucose) (ZDF fa/fa rats): 44%
- Glucose tolerance (ZDF fa/fa rats): improved the glucose tolerance in ZDF rats significantly
- activity at 1 µM (MAPK2/ERK2): 84 ± 8%
- inhibition at 1 µM (JNK/SAPK1c): ~40%
- activity at 1 µM (JNK/SAPK1c; [ATP] 20 μM): 56 ± 4%
- activity at 1 µM (PKBdelta PH): 98 ± 1%
- activity at 1 µM (SGK): 79 ± 4%
- % Activity CK2 (CK2): 84 ± 1%
